Experimental data reported in patent US8841299B2, “Substituted pyrrolo[1,2-a]pyrazines as tankyrase inhibitors” (Hoffman-La Roche Inc., priority 2012, dated 2014).

Experiments:
PARP1 = target: T1, PARP1 (Homo sapiens, UniProt P09874); assay: μHTS-TNKS-IWR2 TR-FRET binding assay, PARP1 in place of TNKS1; conditions: His6-PARP1 (full length), Biotin-IWR2 60 nM
T1 construct: or His6-PARP1 (full length)
Procedure: (§1) μHTS-TNKS-IWR2 TR-FRET Binding Assay
(§2) (10 μL/well in BD1536-well plate, a single point)
(§3) Tankyrase 1 (TNKS1): 184.3 μM=5.2 mg/mL His6-TNKS1, MW=28.2 KDa (construct: 1088-1327, I266M) in 20 mM Tris pH 8, 150 mM NaCl, 10% glycerol, and 0.5 mM TCEP Alternatively, in place of His6-TNKS1 can use either His6-tankyrase 2 (construct: 934-1166) (His6-TNKS2) or His6-PARP1 (full length).
(§4) Biotin-IWR2: 10 mM Biotin-IWR2 stock in DMSO, stored at −20° C.
Positive control: 10 mM […] in DMSO, stored at −20° C.
(§5) Eu-Streptavidin: 38.1 μM (2.1 mg/mL) Eu-SA (Bio #Eu-2212, Lot #N 18001-BDHO2)
(§6) APC-anti-His Ab: 8.50 μM SL-APC, 8.26 μM anti-6His antibody-SureLight APC (Columia Bioscience, Cat #D3-1711, Lot #N01010-AAH04)
(§7) Assay plate: BD 1536-well, clear/black plate (Cat #353255)
(§8) Assay buffer 1a (AB1a) for TNKS dilution: 50 mM Tris, pH 7.4, 100 mM sodium chloride solution, 1 mM magnesium chloride solution, 1 mM DL-dithiothreitol solution, 0.2 mg/mL bovine serum albumin solution, 0.025% NP-40.
(§9) Assay buffer 1b (AB1b) for Biotin-IWR2 dilution: 50 mM Tris, pH 7.4, 100 mM sodium chloride solution, 1 mM magnesium chloride solution, 1 mM DL-dithiothreitol solution, 0.2 mg/mL bovine serum albumin solution, 0.05% NP-40
(§10) Assay buffer 1c (AB1c) for compound dilution: 50 mM Tris, pH 7.4, 100 mM sodium chloride solution, 1 mM magnesium chloride solution, 1 mM DL-dithiothreitol solution, 0.2 mg/mL bovine serum albumin solution
(§11) Assay buffer 2 (AB2) for Eu/APC: 50 mM Tris, pH 7.4, 100 mM sodium chloride solution, 1 mM magnesium chloride solution, 0.2 mg/mL bovine serum albumin solution
(§12) Prepare Biotinylated IWR2 stock solution (3.33× stock) for TOTL and cpd wells: 200 nM Biotin-IWR2 in 5% DMSO/AB1b buffer
(§13) Prepare BLANK well stock solution: 5% DMSO/AB1b buffer
(§14) Prepare POSITIVE CONTROL well stock solution (3.33× stock): 200 nM XAV939 in 200 nM Biotin-IWR2/5% DMSO/AB1b buffer
(§15) Prepare TNKS1 stock solution (5× stock): 300 nM TNKS in AB1a buffer
(§16) (Alternatively, use TNKS2 or PARP1 stock solutions.)
(§17) Prepare Eu/APC stock solution (5× stock): 3.5 nM Eu-SA/50 nM APC-His6Ab in AB2 buffer
(§18) Add 25 μL/well 1.5% DMSO/AB1c buffer in each compound well to the compound concentration at 74 μM in 8.8% DMSO/AB1c buffer or in the 2 μL DMSO CONTROL wells (BLANK, TOTAL and POSITIVE wells) in the compound plate.
(§19) Transfer 3 μL/well of above solution (solution 1, 2, 3) to an empty assay plate (BD1536-well plate) as follows:
(§20) TOTAL and cpd wells: Solution 1 (Biotin-IWR2):
(§21) BLANK wells: Solution 2 (No Biotin-IWR2):
(§22) POSITIVE CONTROL wells: Solution 3 (Biotin-IWR2+XAV939)
(§23) Transfer 3 μL/well of the above diluted compound solutions or compound dilution buffer to the above assay plate.
(§24) Add 2 μL/well of 300 nM TNKS stock solution (4) to every well in the above assay plate
(§25) Centrifuge the assay plate at 2100 rpm for 2 minutes.
(§26) Incubate the assay plate at 26° C. for 30 minutes.
(§27) Add 2 μL/well 3.5 nMEu/50 nM APC solution (5) to every well in the above assay plate.
(§28) Incubate the assay plate at 26° C. for 60 minutes.
(§29) Read the assay plate immediately at excitation wavelength of 330 nm and emission wavelength of […] in time resolved fluorescence mode.
(§30) General Library compounds: 22.23 μM in 4% DMSO

Tankyrase 1 (TNKS1) = target: T2, Tankyrase 1 (TNKS1) (Homo sapiens, UniProt O95271); assay: μHTS-TNKS-IWR2 TR-FRET binding assay, TNKS1
T2 construct: His6-TNKS1, MW=28.2 KDa (construct: 1088-1327, I266M)
T2 sequence (O95271 1088-1327): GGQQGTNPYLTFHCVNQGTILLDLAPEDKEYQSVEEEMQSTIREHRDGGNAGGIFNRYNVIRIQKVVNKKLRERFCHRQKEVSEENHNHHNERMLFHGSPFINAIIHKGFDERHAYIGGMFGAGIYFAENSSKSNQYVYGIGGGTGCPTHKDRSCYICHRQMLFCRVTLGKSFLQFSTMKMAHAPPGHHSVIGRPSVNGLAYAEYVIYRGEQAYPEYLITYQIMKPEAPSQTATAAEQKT
Procedure: as §1, §2, §4, §8, §9, §10, §11, §13, §15, §19, §20, §21, §22, §23, §24, §25, §26, §27, §28

tankyrase 2 (TNKS2) = target: T3, tankyrase 2 (TNKS2) (Homo sapiens, UniProt Q9H2K2); assay: μHTS-TNKS-IWR2 TR-FRET binding assay, TNKS2 in place of TNKS1; conditions: His6-TNKS2 (construct 934-1166), Biotin-IWR2 60 nM
T3 construct: His6-tankyrase 2 (construct: 934-1166) (His6-TNKS2)
T3 sequence (Q9H2K2 934-1166): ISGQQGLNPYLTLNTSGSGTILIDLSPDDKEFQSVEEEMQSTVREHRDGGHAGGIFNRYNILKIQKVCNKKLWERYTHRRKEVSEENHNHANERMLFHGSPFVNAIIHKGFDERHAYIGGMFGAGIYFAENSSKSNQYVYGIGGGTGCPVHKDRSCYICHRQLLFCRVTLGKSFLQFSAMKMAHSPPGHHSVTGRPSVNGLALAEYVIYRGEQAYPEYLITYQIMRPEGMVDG
Procedure: as §1, §2, §3, §4
Positive control: 10 mM XAV 939 in DMSO, stored at −20° C.
as §5, §6, §7, §8, §9, §10, §11, §12, §13, §14, §15, §16, §17, §18, §19, §20, §21, §22, §23, §24, §25, §26, §27, §28, §29
XAV939 (+ve control): 60 nM at ˜70% Inhibition
as §30

T1 sequence (P09874 whole entry): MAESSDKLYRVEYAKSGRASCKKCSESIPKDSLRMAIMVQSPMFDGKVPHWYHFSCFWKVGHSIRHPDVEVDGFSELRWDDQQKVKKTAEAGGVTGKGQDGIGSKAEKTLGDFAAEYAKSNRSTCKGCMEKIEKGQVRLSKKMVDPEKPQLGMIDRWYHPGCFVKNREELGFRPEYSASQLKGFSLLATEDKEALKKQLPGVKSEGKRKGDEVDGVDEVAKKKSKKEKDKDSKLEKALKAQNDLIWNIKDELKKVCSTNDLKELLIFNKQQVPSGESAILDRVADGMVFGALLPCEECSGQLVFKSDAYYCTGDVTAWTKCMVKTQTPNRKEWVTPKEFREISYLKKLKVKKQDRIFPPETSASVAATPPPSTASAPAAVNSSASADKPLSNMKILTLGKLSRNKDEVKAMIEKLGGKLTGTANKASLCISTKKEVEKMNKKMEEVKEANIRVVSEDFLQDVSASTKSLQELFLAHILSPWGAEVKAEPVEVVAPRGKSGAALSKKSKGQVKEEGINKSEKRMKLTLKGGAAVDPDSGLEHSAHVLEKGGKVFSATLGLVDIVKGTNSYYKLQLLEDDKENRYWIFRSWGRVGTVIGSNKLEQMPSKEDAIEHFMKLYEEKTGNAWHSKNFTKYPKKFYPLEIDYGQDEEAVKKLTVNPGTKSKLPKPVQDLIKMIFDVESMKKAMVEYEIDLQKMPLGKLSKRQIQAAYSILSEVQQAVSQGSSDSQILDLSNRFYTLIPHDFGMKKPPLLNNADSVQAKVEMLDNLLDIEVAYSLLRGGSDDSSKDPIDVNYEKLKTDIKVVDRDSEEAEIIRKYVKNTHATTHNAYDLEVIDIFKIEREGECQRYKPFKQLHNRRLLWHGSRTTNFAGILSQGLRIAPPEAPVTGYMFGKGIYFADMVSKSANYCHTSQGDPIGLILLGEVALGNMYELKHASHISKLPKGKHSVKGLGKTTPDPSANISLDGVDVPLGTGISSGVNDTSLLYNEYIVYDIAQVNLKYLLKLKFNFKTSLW

Row | Structure (SMILES) | IC50 (PARP1) [nM] | IC50 (Tankyrase 1 (TNKS1)) [nM] | IC50 (tankyrase 2 (TNKS2)) [nM]
1 | NC(=O)c1ccc2c(=O)[nH]c(-c3ccc(C(F)(F)F)cc3)cn12 [Example 4, 1-Oxo-3-(4-trifluoromethyl-phenyl)-1,2-dihydro-pyrrolo[1,2-a]pyrazine-6-carboxylic acid amide] | 29500 | 770 | 1900
2 | N#Cc1ccc2c(=O)[nH]c(-c3ccc(C(F)(F)F)cc3)cn12 [Example 2, 1-Oxo-3-(4-trifluoromethyl-phenyl)-1,2-dihydro-pyrrolo[1,2-a]pyrazine-6-carbonitrile] | 31200 | 232 | 995
3 | O=c1[nH]c(-c2ccc(C(F)(F)F)cc2)cn2c(CO)ccc12 [Example 8, 6-Hydroxymethyl-3-(4-trifluoromethyl-phenyl)-2H-pyrrolo[1,2-a]pyrazin-1-one] | 11400 | 17 | 715
4 | N=C(N)c1ccc2c(=O)[nH]c(-c3ccc(C(F)(F)F)cc3)cn12 [Example 5, 1-Oxo-3-(4-trifluoromethyl-phenyl)-1,2-dihydro-pyrrolo[1,2-a]pyrazine-6-carboxamidine] | > 50000 | 6790 | 12700
5 | Cc1ccc2c(=O)[nH]c(-c3ccc(C(F)(F)F)cc3)cn12 [Example 7, 6-Methyl-3-(4-trifluoromethyl-phenyl)-2H-pyrrolo[1,2-a]pyrazin-1-one] | 172 | 32 | 72
6 | O=c1[nH]c(-c2ccc(C(F)(F)F)cc2)cn2c(Br)ccc12 [Example 10, 6-Bromo-3-(4-trifluoromethyl-phenyl)-2H-pyrrolo[1,2-a]pyrazin-1-one] | 1250 | 56 | 158
7 | COc1ccc(-c2cn3c(Br)ccc3c(=O)[nH]2)cc1 [Example 1, 6-Bromo-3-(4-methoxy-phenyl)-2H-pyrrolo[1,2-a]pyrazin-1-one] | > 50000 | 54 | 145
8 | O=c1[nH]c(-c2ccc(C(F)(F)F)cc2)cn2c(C3=NCCN3)ccc12 [Example 6, 6-(4,5-Dihydro-1H-imidazol-2-yl)-3-(4-trifluoromethyl-phenyl)-2H-pyrrolo[1,2-a]pyrazin-1-one] | 34900 | 1110 | 1840
9 | N/C(=N\O)c1ccc2c(=O)[nH]c(-c3ccc(C(F)(F)F)cc3)cn12 [Example 3, N-Hydroxy-1-oxo-3-(4-trifluoromethyl-phenyl)-1,2-dihydro-pyrrolo[1,2-a]pyrazine-6-carboxamidine] | > 50000 | 192 | 1260
10 | Cc1ccc2c(=O)[nH]c(N3CCN(c4ccccc4F)CC3)cn12 [Example 9, 3-[4-(2-Fluoro-phenyl)-piperazin-1-yl]-6-methyl-2H-pyrrolo[1,2-a]pyrazin-1-one] | 2740 | 68 | 68
